The results in this text go back to ChEMBL document CHEMBL1152778, “Design, synthesis, and biological evaluation of (2R,alphaS)-3,4-dihydro-2-[3-(1,1,2,2-tetrafluoroethoxy)phenyl]-5-[3-(trifluoromethoxy)-phenyl]-alpha-(trifluoromethyl)-1(2H)-quinolineethanol as potent and orally active cholesteryl ester transfer protein inhibitor” (J Med Chem, 2009).

The structures appear in SMILES notation. The source made the active and inactive calls. The calls are words filed in the database; no cut-off is given here.

For data set [1], the target named is Phospholipid transfer protein (Homo sapiens) (UniProt P55058). The experiment in a line: Inhibition of PLTP activity assessed as phosphatidylcholine transferred from [3H]phosphatidylcholine (dipalmitoyl)-labeled liposomes to HDL by cell based liquid scintillation counter.
In data set [2] the target is T1, Phosphatidylcholine-sterol acyltransferase (Homo sapiens) (UniProt P04180).
T1 sequence (whole entry): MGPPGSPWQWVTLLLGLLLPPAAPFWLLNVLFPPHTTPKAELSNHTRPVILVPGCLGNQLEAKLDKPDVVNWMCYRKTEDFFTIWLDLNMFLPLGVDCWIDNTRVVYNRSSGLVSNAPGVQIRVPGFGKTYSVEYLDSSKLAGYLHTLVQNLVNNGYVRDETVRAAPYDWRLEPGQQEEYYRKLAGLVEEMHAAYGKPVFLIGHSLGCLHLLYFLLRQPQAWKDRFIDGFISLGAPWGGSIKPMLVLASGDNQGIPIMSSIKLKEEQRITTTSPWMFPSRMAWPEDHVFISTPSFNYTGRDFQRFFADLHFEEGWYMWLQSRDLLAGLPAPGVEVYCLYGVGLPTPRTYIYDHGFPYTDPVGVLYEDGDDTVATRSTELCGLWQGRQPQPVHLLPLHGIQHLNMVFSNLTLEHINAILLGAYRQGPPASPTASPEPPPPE
The experiment in a line: Inhibition of LCAT activity in human plasma assessed as change in cholesteryl ester/free cholesterol ratio by cell based assay.

Data set [3] concerns the target T2, Hepatic triacylglycerol lipase (Homo sapiens) (UniProt P11150).
T2 sequence (whole entry): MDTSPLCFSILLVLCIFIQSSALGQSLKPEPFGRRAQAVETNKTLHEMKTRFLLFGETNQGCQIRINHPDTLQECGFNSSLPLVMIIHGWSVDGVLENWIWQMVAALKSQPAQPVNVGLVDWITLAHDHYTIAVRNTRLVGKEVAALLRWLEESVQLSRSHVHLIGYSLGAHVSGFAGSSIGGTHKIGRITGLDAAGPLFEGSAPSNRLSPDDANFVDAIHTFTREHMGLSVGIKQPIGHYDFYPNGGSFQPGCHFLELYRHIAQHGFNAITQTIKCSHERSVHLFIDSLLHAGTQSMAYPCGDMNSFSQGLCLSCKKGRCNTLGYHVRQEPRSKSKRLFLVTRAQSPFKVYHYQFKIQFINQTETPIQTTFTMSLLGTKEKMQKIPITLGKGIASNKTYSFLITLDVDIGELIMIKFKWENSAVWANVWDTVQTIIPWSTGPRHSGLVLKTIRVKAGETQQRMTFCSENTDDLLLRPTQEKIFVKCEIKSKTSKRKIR
The experiment in a line: Inhibition of hepatic lipase activity assessed as release of free fatty acid from hydrolysis of VLDL by cell based assay.

Data set [4] has as its target T3, Lipoprotein lipase (Homo sapiens) (UniProt P06858).
T3 sequence (whole entry): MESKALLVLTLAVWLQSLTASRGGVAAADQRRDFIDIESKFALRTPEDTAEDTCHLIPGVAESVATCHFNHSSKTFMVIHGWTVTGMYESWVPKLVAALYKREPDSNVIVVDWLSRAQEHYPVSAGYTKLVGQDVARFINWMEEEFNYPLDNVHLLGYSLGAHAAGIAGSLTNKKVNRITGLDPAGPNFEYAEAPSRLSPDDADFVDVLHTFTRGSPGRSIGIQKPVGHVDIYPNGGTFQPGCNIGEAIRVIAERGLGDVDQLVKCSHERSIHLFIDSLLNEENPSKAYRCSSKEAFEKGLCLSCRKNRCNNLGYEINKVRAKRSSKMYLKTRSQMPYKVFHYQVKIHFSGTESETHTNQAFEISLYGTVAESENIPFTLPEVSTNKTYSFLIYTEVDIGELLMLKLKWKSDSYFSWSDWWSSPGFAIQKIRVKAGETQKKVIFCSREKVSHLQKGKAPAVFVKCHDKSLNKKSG
As to the kind of experiment: Inhibition of lipoprotein lipase activity assessed as release of free fatty acid from hydrolysis of VLDL by cell based assay.

In data set [5] the target is T4, Microsomal triglyceride transfer protein large subunit (Homo sapiens) (UniProt P55157).
T4 sequence (whole entry): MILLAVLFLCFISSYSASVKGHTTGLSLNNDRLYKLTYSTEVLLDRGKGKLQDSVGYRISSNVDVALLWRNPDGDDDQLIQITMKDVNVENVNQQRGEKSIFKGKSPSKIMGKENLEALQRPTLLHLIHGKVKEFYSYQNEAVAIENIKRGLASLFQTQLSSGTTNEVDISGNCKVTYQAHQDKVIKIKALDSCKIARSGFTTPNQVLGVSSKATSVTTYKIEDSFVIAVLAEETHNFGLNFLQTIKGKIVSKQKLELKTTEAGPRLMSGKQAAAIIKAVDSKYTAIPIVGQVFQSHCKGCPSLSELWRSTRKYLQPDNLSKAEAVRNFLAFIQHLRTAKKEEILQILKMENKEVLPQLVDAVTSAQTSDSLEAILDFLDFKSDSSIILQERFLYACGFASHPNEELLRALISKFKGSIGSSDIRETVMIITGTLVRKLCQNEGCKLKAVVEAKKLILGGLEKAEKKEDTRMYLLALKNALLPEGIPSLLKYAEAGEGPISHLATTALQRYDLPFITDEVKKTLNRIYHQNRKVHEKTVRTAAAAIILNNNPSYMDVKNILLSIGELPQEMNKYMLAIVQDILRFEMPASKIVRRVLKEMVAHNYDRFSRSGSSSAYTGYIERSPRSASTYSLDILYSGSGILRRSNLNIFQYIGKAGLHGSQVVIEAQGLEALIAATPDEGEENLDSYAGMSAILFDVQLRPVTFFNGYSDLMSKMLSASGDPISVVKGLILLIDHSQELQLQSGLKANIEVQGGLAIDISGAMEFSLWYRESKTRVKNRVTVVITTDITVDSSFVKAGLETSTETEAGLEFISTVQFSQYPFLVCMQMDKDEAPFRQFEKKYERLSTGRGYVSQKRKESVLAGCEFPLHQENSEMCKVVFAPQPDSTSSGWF
As to the kind of experiment: Inhibition of microsomal triglyceride transfer protein by cell based assay.

In data set [6] the target is T5, Endothelial lipase (Homo sapiens) (UniProt Q9Y5X9).
T5 sequence (whole entry): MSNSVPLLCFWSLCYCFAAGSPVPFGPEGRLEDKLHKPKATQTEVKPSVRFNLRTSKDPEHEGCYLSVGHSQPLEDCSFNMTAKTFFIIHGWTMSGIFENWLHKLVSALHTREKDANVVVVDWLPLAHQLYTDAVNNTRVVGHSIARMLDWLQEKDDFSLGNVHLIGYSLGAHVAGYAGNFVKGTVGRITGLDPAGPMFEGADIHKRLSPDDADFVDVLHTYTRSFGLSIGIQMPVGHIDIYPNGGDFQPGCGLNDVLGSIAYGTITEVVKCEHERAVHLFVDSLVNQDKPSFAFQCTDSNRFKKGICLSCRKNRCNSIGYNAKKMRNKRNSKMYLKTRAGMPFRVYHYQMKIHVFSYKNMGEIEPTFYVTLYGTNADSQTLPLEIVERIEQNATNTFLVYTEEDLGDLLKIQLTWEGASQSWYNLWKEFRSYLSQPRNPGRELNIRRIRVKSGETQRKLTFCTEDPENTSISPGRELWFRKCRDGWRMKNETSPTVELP
The experiment in a line: Inhibition of endothelial lipase by cell based assay.

The next data set concerns Hamster. The experiment in a line: Increase in HDLC level in high-fat fed hamster model at 30 mg/kg, po for 5 days measured after 2 hrs of last dose. The data set is classed as functional, Cricetinae.
The subject of another data set is Mus musculus. As to the kind of experiment: Increase in HDLC level in normal chow diet-fed human CETP transgenic mouse model at 30 mg/kg, po for 5 days measured after 2 hrs of last dose. The format is functional.
Data set [7] deals with Cynomolgus monkey. As to the kind of experiment: Increase in HDLC level in normal chow diet-fed cynomolgus monkey at 3 mg/kg, po for 5 days measured after 10 hrs of last dose. The format is functional, Macaca fascicularis.
In data set [8] the test system is Cynomolgus monkey. The experiment in a line: Increase in HDLC level in normal chow diet-fed cynomolgus monkey at 10 mg/kg, po for 5 days measured after 10 hrs of last dose. The data set is classed as functional, Macaca fascicularis.
Data set [9] deals with Cynomolgus monkey. As to the kind of experiment: Increase in HDLC level in normal chow diet-fed cynomolgus monkey at 30 mg/kg, po for 5 days measured after 10 hrs of last dose. The data set is classed as functional, Macaca fascicularis.
For data set [10], the system named is Cynomolgus monkey. The experiment in a line: Ex vivo inhibition of CETP in normal chow diet-fed cynomolgus monkey at 3 mg/kg, po for 5 days by Roar assay. The data set is classed as functional. The settings on record: Macaca fascicularis, 120 h.
Data set [11] relates to Cynomolgus monkey. As to the kind of experiment: Ex vivo inhibition of CETP in normal chow diet-fed cynomolgus monkey at 10 mg/kg, po for 5 days by Roar assay. The data set is classed as functional. As to conditions: Macaca fascicularis, 120 h.
Data set [12] deals with Cynomolgus monkey. As to the kind of experiment: Ex vivo inhibition of CETP in normal chow diet-fed cynomolgus monkey at 30 mg/kg, po for 5 days by Roar assay. The format is functional. As to conditions: Macaca fascicularis, 120 h.
A short description of data set [13]: Plasma concentration in normal chow diet-fed cynomolgus monkey at 3 mg/kg, po for 5 days. Details: dose 3 mg/kg, route oral. The format is ADME, organism-based, Macaca fascicularis.
Data set [14] is described as follows: Plasma concentration in normal chow diet-fed cynomolgus monkey at 10 mg/kg, po for 5 days. The format is ADME, organism-based, Macaca fascicularis. Set-up: dose 10 mg/kg, route oral.
The nature of data set [15]: Plasma concentration in normal chow diet-fed cynomolgus monkey at 30 mg/kg, po for 5 days. The data set is classed as ADME, organism-based, Macaca fascicularis. Details: dose 30 mg/kg, route oral.
For data set [16], the target named is T6, Cholesteryl ester transfer protein (Homo sapiens, UniProt P11597).
T6 sequence (P11597 whole entry): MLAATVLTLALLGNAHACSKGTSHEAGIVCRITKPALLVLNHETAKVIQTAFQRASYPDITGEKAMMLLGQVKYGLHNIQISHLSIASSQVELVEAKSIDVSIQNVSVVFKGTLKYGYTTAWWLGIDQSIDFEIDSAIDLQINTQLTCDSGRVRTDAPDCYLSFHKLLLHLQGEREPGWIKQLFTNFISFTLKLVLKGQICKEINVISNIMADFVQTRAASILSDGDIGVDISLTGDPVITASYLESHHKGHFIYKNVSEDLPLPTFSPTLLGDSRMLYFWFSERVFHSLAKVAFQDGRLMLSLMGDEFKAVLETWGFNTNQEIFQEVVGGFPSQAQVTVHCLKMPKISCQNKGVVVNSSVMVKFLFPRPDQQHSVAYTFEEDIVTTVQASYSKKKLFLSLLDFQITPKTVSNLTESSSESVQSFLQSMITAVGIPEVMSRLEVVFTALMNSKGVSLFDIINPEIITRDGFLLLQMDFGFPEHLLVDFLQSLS
The experiment in a line: Inhibition of CETP-mediated transfer of [3H]cholesteryl ester from HDL donar particles to LDL acceptor particles.

Chain of Phospholipid transfer protein (Homo sapiens) (P55058 whole entry): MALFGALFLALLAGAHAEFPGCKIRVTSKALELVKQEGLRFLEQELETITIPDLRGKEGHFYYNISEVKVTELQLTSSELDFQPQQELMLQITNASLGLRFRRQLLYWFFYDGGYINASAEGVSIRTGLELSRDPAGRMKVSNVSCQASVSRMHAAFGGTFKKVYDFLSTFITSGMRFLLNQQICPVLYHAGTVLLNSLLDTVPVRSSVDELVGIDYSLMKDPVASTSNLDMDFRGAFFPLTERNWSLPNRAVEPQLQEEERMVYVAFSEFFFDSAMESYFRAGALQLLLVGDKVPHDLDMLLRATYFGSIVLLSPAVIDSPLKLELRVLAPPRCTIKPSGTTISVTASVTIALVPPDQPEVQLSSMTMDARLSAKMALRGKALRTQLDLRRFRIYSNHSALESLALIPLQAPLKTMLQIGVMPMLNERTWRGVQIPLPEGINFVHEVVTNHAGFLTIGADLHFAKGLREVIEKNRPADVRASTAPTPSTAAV

For `CCOC(=O)N1c2ccc(C(F)(F)F)cc2[C@@H](N(Cc2cc(C(F)(F)F)cc(C(F)(F)F)c2)C(=O)OC)C[C@H]1CC` [TORCETRAPIB], the result in data set [1], in data set [2], in data set [3], in data set [4], in data set [5] and in data set [6] was inactive. The Activity with Hamster is 44%; with Mus musculus, 28%; in the data set with Cynomolgus monkey [7] it was 24%; in the data set with Cynomolgus monkey [8] it was 41%; with Cynomolgus monkey [9] it was 44%. Besides, in the data set with Cynomolgus monkey [10], the inhibition in vivo – broadly, the share of the control response that was lost under treatment – at 3 mg/kg is 35%. This molecule also registered an inhibition in vivo at 10 mg/kg in the data set with Cynomolgus monkey [11] of 66%. Further, in the data set on Cynomolgus monkey [12], the inhibition in vivo at 30 mg/kg worked out at 85%. Further, the concentration at 120 h in [13] amounted to 300 nM; in [14], 1300 nM; in data set [15], 2900 nM.
Regarding `OC(CN1c2cccc(-c3cccc(OC(F)(F)F)c3)c2CCC1c1cccc(OC(F)(F)C(F)F)c1)C(F)(F)F` (racemic), in [16], the half-inhibitory concentration (IC50) (usually the concentration that gives 50% inhibition) amounted to 45 nM.
